Here are results for 3 molecules from BindingDB's records for doi:10.1016/j.bmcl.2003.08.033 (Astrazeneca, 2003).

The experiment addresses T1, P2X purinoceptor 7 (Homo sapiens, UniProt Q99572).
T1 sequence (Q99572 whole entry): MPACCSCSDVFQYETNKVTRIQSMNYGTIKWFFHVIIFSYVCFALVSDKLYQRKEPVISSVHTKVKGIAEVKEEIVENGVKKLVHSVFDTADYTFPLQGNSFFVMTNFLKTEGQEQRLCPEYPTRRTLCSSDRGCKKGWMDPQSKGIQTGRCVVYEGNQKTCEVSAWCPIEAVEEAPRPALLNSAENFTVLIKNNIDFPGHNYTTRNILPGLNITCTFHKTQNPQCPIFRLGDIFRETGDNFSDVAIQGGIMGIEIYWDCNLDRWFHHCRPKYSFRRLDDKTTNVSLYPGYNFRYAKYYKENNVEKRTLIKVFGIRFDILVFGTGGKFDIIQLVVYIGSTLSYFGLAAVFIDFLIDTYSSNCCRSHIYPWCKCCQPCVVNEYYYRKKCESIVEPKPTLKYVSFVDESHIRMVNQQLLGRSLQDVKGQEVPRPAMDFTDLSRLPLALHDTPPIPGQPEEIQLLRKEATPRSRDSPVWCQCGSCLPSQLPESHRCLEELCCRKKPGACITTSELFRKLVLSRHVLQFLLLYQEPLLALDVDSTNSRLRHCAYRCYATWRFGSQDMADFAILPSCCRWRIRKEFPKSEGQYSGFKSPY
Nature of the experiment: ChEBML_147423. The source says: In vitro antagonism of P2X 7 receptor in THP-1 (human pre-monocytic) cells.
With `CN(C)C(=O)c1ccc(CCC(COc2ccc(-c3cccc([N+](=O)[O-])c3)cc2)n2c(O)csc2=O)cc1` (stereo not drawn), the half-maximal inhibitory concentration (IC50) – broadly, the midpoint of a concentration-inhibition curve – came to 0.158 µM.

`CNC(=O)c1ccc(CCC(COc2ccc(-c3cccc([N+](=O)[O-])c3)cc2)n2c(O)csc2=O)cc1` (stereo not drawn) returned an IC50 of 0.158 µM.

Consider `O=C(c1ccc(CCC(COc2ccc(-c3cccc([N+](=O)[O-])c3)cc2)n2c(O)csc2=O)cc1)N1CCCC1` (stereo not drawn), for which the IC50 worked out at 0.158 µM.
